From patent publication EP0845265A1, “MUCOSAL P[…] PHYSIOLOGICALLY ACTIVE PEPTIDE” (Asahi Kasei Kogyo Kabushiki Kaisha, priority 1995, dated 1997)
Counter-ions that a name gives are not always drawn.

Assay: In vivo absorption of elcatonin by rats (nasal administration, serum level by RIA)
Parameters: species or system Wistar rats
Settings: diltiazem hydrochloride per se, without absorption promotor
Experimental: In vivo absorption of elcatonin by rats :
Wistar rats, male (Japan SLC, body weight 200 - 250 g), fasting overnight, 4 rats in a group, were anesthetized by pentobarbital (Nembutal inj. Dainippon Pharm. Co., Japan).
Polyethylene tube was inserted into the trachea by incised in the corvex. Tube was inserted into postnasal space after esophageal incision. Administration was conducted by pouring drug solution 25 µl prepared in use using micropipette into the right naris. Blood sample 200 µl was collected from femoral vein time dependently before and after administration of drug. Blood sample was centrifuged (15,000 rpm/10 min./5°C) and stored at -30 °C before analysis.
Elcatonin 20 units/ml (in physiological saline) 0.25 ml was subcutaneously administered for comparison with absorption rate (comparison 1).
Blood level was assayed by RIA.
Absorption rate is calculated by using area under the curve (AUC) in the comparison 1 from the following equation. Absorption rate (%) =(AUC (I.N.))/(AUC (S.C.))×(dose (S.C.))/(dose (I.N.))×100 [formula] wherein I. N. : nasal administraion and S.C. : subcutaneous administration. As clearly shown in Fig. 2, absorption of elcatonin was enhanced in above 2 fold through nasal mucosa by administering with absorption promotor sodium glycocholate and calciuim channel blocker as compared with sodium glycocholic acid per se.

## COc1ccc([C@@H]2Sc3ccccc3N(CCN(C)C)C(=O)[C@@H]2OC(C)=O)cc1 [diltiazem hydrochloride, Diltiazem hydrochloride]
  absorption promoting action: no absorption promoting action
